Data reported in publication PMC12373846, “Hemoglobin as a pseudoperoxidase and drug target for oxidative stress-related diseases” (Signal Transduction and Targeted Therapy, 2025).

How the values were obtained:
[1] = DPPH radical scavenging assay; settings: Fig. S1e
Method: In a 96-well microplate, samples (20 μl) at concentrations ranging from 0.1 to 100 μM were mixed with 80 μL of 50 mM sodium phosphate buffer (pH 7.2) and 100 μL of DPPH (1,1-diphenyl-2-picrylhydrazyl) solution (250 μM in methanol) and incubated for 30-min in the dark. Each sample was quantified using a microplate fluorescence reader (SpectraMax iD5, Molecular Devices) at absorbance (517 nm). Edaravone was used as a positive control. The radical scavenging activity was estimated using the following equation: sample absorbance / control absorbance ×100. The dose-response curve, EC50 for the DPPH, was calculated and determined by fitting data with GraphPad Prism software. The fitting method had no special handling of outliers.

[2] = tested on: primary cultured hippocampal astrocytes; assay: DCFDA intracellular ROS assay; assay type: cell-based, mouse; settings: for ROS level (DCFDA): Fig. 3d
Method: (§1) Primary hippocampal astrocytes were obtained from postnatal day 0‒2 (P0‒2) C57BL/6 mice as previously described.[73] The hippocampal tissue was dissected free of meninges, minced, and dissociated into a single-cell suspension by trituration. The cells were grown in Dulbecco’s modified Eagle’s medium supplemented with D-glucose (4500 mg/L), L-glutamine, sodium pyruvate (110 mg/L), 10% heat-inactivated horse serum, 10% heat-inactivated fetal bovine serum, and 1000 U/ml penicillin‒streptomycin. The cells were maintained at 37 °C in a humidified atmosphere containing 5% CO2.
The intracellular ROS levels of astrocytes were determined via 2′,7′- dichlorodihydrofluorescein diacetate (DCFDA; Thermo Fisher). Primary cultured hippocampal astrocytes were seeded into black 96-well plates (Ibidi) at a density of 5 × 10⁴ cells per well. The plates were incubated with oligomerized Aβ42 in the presence of KDS12008, KDS12017, KDS12025, HTPEB (10 µM each), and sodium pyruvate (1 mM). These cells were subsequently washed with Ca^2+ and Mg^2+-containing PBS, followed by the application of 30 µM DCFDA and incubation at 37 °C for 30 min in a dark incubator. The mean fluorescence intensity of each well was measured via iD5 microplate readers at 485 nm and 530 nm. The fluorescence values were calculated by subtracting the blank readings and normalizing them to those of the control group.

[3] = tested on: primary cultured hippocampal astrocytes; assay: oROS-G intracellular H2O2 imaging; assay type: cell-based, mouse; settings: for oROS-G fluorescence (intracellular H2O2): Fig. 3f
Method: as §1
H2O2 specific, highly sensitive, and fast on-and-off kinetics, a genetically encoded oROS-G plasmid kindly provided by Dr. Andre Berndt. oROS-G was cloned under the GFAP104 promoter and delivered into primary cultured hippocampal astrocytes via the NeoN^TM transfection system (Invitrogen). The cells were treated with various concentrations of Aβ (1 to 10 μM) or 6-OHDA (Tocris, 2547; 10 to 50 μM) to induce aberrant H2O2. For subsequent experiments, 5 μM Aβ and 30 μM 6-OHDA were selected on the basis of initial dose‒response studies. KDS12025 (10 μM) and sodium pyruvate (1 mM) were applied as indicated in each experiment. For live-cell imaging, astrocytes were maintained in a humidified chamber at 37 °C with 5% […] during imaging to preserve physiological conditions. Changes in the fluorescence of oROS-G were recorded via an A1 Nikon confocal microscope equipped with a temperature- and humidity-controlled stage. Images were captured every 20 min for up to 40 h (20for the 6-OHDA experiments) via the NIS-Elements software (Nikon, Japan) for time-lapse imaging. The excitation and emission wavelengths for oROS-G fluorescence were set to 485 nm and 538 nm, respectively. Endpoint fluorescence measurements were also collected for KDS12025 dose-dependent experiments. To analyze the fluorescence intensity, individual regions of interest (ROIs) were manually selected for each astrocyte via NIS-Elements software (Nikon, Japan). The fluorescence intensity changes were normalized to the baseline values (ΔF/F0) to quantify the H2O2 dynamics. To determine the EC50 of KDS12025, endpoint fluorescence intensity data from oROS-G experiments were normalized to those of the Aβ+vehicle control group. The normalized data were analyzed via GraphPad Prism software to fit a four-parameter logistic curve, yielding the EC50 value for the H2O2-decomposing activity of KDS12025.

HRP = target: T1, HRP (Armoracia rusticana, UniProt P00433); assay: ROS-Glo H2O2 assay with HRP; assay type: biochemical, horseradish
T1 sequence (P00433 31-353): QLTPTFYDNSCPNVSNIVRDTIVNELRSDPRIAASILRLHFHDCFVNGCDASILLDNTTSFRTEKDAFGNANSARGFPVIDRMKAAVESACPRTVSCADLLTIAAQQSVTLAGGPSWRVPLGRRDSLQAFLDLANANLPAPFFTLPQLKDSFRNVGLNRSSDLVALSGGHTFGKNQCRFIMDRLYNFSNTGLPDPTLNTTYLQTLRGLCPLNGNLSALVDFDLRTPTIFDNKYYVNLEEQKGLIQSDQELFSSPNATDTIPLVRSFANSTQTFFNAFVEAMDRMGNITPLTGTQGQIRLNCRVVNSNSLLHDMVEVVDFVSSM
Method: Hb (Sigma‒Aldrich, H7379), H2O2 (Sigma‒Aldrich, H1009), and Amplex Red reagents (Invitrogen, A12222) were obtained for the study. A 4 μM H2O2 solution was prepared in 50 mM sodium phosphate buffer (pH 7.2). Then, 49 μl of this mixture was mixed with 1 μl of the test compound in DMSO or distilled water. The mixture was combined with an assay mixture of Amplex Red reagent (20 mM stock to 0.1 mM) and HRP (200 U/ml stock to 0.2 U/ml) and added to the wells at 50 μl/well. After a 60-min incubation at 37 °C, resorufin production was quantified via a microplate fluorescence reader (SpectraMax iD5, Molecular Devices) at ex/em = 535/580 nm. […] For the ROS-Glo assay, the H2O2 substrate solution and ROS-Glo detection solution were prepared according to the manufacturer’s instructions. 10 μM H2O2 and drugs were prepared as in the Amplex Red assay, with HRP, Hb, CAT, or GPx added as needed. The mixture was added to the wells at 100 μl/well and incubated for 60 min at 37 °C. H2O2 substrate solution was added, and the mixture was incubated at room temperature for 30 min. After the H2O2 substrate solution was added and incubated at room temperature for 30 min, the ROS-Glo detection solution was added, and the mixture was incubated for 15 min. Luminescence was measured via iD5 microplate readers. […] The U/ml was calculated on the basis of the amount of H2O2 reduced by Hb during the reaction, using μg/ml and U/mg.
To evaluate the extent of peroxidase function facilitation by HTPEB (1 μM) and KDS12025 (1 μM) in HRP (0.2 U/ml) and Hb (10 μg/ml), we used the ROS-Glo assay over 30 and 60 min. The fold change was calculated by dividing the delta values during the 30-min reaction for the vehicle over drug conditions.

CC1=NN(c2ccccc2)C(=O)C1 [Edaravone]
IC50 [1]: 16.7 µM

CC(=O)C(=O)[O-].[Na+] [Sodium pyruvate, sodium pyruvate, reference compound]
Aβ-induced ROS level (DCFDA), normalized to control ([2]; Aβ 5μM + sodium pyruvate 1mM, Fig. 3e): 149.1±6.194
oROS-G H2O2 level ([3]; 6-OHDA 30 μM + sodium pyruvate, Fig. 3k): 177.0±17.5
oROS-G H2O2 level, 40-h imaging ([3]; Aβ 5 μM + sodium pyruvate 1 mM, Fig. 3h): 137.5±9.751
oROS-G H2O2 level, 40-h imaging ([3]; putrescine 180 μM + sodium pyruvate 1 mM, Fig. 3i): 189.0±23.55

Aβ: oligomerized Amyloid-beta (Aβ)42 aggregates [reference compound]
ROS level (DCFDA) ([2]; Aβ 1μM): 101.9±6.217
ROS level (DCFDA) ([2]; Aβ 5μM): 137.3±8.218
ROS level (DCFDA) ([2]; Aβ 10μM): 155.2±9.442
oROS-G fluorescence (intracellular H2O2) ([3]; Aβ 1μM): 109.4±4.271
oROS-G fluorescence (intracellular H2O2) ([3]; Aβ 5μM): 140.5±4.407
oROS-G fluorescence (intracellular H2O2) ([3]; Aβ 10μM): 208.1±3.662

HRP: horseradish peroxidase, plant-derived heme-containing peroxidase
EC50 of HRP for H2O2 decomposition without HTPEB (HRP; Fig. S1a): 0.062 U/ml
tau value, reaction time-response of HRP without HTPEB (HRP; Fig. S1b): 13.7 min
